# From publication PMC4079327 (Journal of Medicinal Chemistry, 2014)
# Tests used:
# [1] = target: HsDHODH (Homo sapiens, UniProt Q02127); test: DHODH steady-state inhibition, DCIP assay; type: biochemical
# [2] = target: T1, PfDHODH (Plasmodium falciparum, UniProt Q08210, DEL384-413); test: Isothermal titration calorimetry; type: binding; conditions: ITC, 303 K; for ΔH PfDHODH: 1σ confidence interval in parentheses
# T1 sequence (Q08210 with tags, fused parts or gaps DEL384-413): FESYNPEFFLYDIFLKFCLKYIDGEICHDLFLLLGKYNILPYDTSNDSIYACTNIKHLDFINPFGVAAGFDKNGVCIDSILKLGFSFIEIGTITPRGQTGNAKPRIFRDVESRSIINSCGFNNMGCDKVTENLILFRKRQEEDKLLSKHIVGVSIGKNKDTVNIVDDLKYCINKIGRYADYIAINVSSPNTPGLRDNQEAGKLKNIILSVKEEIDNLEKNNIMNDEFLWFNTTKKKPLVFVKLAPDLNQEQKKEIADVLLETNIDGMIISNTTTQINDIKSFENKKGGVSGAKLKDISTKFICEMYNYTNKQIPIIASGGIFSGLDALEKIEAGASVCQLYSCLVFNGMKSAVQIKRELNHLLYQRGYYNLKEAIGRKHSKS
# [3] = target: rat DHODH (Rattus norvegicus, UniProt Q63707); test: Isothermal titration calorimetry; type: binding; conditions: ITC, 303 K; for ΔH rat DHODH: 1σ confidence interval in parentheses
# [4] = target: HsDHODH R136A (Homo sapiens, UniProt Q02127, R135A); test: biochemical
# [5] = target: HsDHODH L46A (Homo sapiens, UniProt Q02127, L45A); test: biochemical
# [6] = target: dDHODH (Canis lupus familiaris, UniProt A0A8I3MWX2); test: DHODH steady-state inhibition, DCIP assay; type: biochemical, dog
# [7] = target: rDHODH (Rattus norvegicus, UniProt Q63707); test: DHODH steady-state inhibition, DCIP assay; type: biochemical
# [8] = target: mDHODH (Mus musculus, UniProt O35435); test: DHODH steady-state inhibition, DCIP assay; type: biochemical
# [9] = test system: P. falciparum 3D7 cells; conditions: read-out: IC50 P. falciparum 3D7 cells; cited from earlier work
# [10] = target: T2, PfDHODH (Plasmodium falciparum, UniProt Q08210); conditions: read-out: IC50 PfDHODH; cited from earlier work
# T2 sequence (Q08210 158-569): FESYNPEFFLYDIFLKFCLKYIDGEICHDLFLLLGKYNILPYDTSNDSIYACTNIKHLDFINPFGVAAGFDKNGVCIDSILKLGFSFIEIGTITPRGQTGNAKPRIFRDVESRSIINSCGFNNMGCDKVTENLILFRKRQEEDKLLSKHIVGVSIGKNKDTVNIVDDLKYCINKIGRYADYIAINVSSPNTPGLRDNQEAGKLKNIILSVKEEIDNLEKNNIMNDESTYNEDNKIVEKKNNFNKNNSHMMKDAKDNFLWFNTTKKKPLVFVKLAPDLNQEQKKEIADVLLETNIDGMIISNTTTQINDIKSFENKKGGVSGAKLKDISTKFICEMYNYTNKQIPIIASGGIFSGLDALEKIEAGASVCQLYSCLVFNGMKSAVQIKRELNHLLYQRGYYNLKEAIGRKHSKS
# [11] = target: HsDHODH L359A (Homo sapiens, UniProt Q02127, L358A); test: biochemical
# HsDHODH L359A, sequence (Q02127 32-395 L358A): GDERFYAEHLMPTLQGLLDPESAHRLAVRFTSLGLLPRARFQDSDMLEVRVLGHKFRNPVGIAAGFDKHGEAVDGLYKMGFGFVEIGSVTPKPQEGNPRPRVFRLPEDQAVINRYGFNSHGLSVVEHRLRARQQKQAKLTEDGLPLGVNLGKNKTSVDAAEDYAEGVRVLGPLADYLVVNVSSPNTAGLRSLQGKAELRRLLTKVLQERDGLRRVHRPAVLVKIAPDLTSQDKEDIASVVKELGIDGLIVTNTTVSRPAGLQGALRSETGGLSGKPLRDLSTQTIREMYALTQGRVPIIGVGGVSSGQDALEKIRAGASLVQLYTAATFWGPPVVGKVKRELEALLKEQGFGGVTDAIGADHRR
# HsDHODH L46A, sequence (Q02127 32-395 L45A): as the sequence (Q02127 32-395 L358A) above, with L14A, A327L counted along it
# HsDHODH R136A, sequence (Q02127 32-395 R135A): as the sequence (Q02127 32-395 L358A) above, with R104A, A327L counted along it
# rat DHODH, sequence (Q63707 32-395 limits assumed): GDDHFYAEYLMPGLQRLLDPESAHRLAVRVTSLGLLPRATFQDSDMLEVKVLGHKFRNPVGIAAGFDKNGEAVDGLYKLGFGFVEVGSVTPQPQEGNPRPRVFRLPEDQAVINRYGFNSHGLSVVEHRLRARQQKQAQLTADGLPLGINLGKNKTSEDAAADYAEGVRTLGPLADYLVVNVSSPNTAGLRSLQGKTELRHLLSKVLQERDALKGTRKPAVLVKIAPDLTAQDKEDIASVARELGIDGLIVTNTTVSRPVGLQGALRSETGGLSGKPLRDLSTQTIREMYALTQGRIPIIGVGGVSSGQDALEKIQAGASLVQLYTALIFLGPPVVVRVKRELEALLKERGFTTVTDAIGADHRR
# HsDHODH, sequence (Q02127 29-395 limits assumed): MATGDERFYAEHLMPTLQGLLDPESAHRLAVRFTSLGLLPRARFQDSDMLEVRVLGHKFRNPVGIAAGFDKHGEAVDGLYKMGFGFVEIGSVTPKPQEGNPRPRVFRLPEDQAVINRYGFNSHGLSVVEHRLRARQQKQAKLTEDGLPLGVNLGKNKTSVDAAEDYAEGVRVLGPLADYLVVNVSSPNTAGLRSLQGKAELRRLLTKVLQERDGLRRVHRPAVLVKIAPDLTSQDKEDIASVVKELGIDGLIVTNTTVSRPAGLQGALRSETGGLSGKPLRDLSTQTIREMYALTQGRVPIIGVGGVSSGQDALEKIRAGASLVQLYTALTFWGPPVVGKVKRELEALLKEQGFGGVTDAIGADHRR
# mDHODH, sequence (O35435 29-395 limits assumed): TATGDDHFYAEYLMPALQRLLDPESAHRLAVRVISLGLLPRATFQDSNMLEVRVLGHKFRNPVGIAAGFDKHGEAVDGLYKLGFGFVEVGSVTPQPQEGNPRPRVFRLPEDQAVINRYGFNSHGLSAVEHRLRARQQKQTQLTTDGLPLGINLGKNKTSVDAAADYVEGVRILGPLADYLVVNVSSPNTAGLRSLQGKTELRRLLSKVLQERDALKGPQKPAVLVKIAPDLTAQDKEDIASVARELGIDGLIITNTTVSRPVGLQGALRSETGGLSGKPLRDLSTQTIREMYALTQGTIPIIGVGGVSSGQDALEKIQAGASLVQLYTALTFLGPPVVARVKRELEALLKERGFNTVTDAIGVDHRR
# rDHODH, sequence (Q63707 29-395 limits assumed): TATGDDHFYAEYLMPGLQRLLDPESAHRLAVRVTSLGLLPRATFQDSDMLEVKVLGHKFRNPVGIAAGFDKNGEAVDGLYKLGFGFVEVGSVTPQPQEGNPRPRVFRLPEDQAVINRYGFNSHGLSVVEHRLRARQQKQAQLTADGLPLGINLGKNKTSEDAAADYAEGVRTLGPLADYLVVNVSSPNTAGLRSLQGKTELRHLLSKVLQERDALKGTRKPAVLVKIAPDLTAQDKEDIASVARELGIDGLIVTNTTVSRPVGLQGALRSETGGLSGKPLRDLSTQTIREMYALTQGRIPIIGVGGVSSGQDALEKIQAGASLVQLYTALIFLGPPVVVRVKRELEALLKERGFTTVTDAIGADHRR
# dDHODH, sequence (A0A8I3MWX2 29-395): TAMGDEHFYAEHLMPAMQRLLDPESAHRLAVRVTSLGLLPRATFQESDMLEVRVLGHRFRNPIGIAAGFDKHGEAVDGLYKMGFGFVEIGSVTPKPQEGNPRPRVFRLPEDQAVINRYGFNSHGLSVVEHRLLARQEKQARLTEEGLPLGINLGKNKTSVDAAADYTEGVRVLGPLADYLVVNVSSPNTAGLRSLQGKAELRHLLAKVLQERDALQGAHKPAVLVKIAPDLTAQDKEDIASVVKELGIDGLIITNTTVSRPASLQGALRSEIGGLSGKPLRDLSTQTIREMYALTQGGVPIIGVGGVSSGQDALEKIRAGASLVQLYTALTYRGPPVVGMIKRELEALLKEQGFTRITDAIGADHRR
Compound,inhibition of the human enzyme (in words) [1],–TΔS PfDHODH [2],ΔH PfDHODH [2],ΔH rat DHODH [3],IC50 [4] [µM],IC50 [5] [µM],inhibition of dog DHODH (in words) [6],inhibition of rat DHODH (in words) [7],inhibition of mouse DHODH (in words) [8],IC50 [9] [µM],IC50 [10] [µM],IC50 [11] [µM],–TΔS rat DHODH [3]
"Cc1cc(Nc2ccc(C(F)(F)F)cc2)n2nc(C(C)(F)F)nc2n1 [Compound 5, 2-(1,1-difluoroethyl)-5-methyl-N-[4-(trifluoromethyl)phenyl]-[1,2,4]triazolo[1,5-a]pyrimidin-7-amine]",did not inhibit,–2.2 kcal/mol,–8.3 (−9.2 to −7.5) kcal/mol,–,–,–,–,–,–,–,–,–,–
"Cc1cc(Nc2cc(F)c(C(F)(F)F)c(F)c2)n2nc(C(F)(F)F)nc2n1 [Compound 6, N-(3,5-difluoro-4-(trifluoromethyl)phenyl)-2-(trifluoromethyl)-5-methyl-[1,2,4]-triazolo[1,5-a]pyrimidin-7-amine]",–,–4.5 kcal/mol,–6.5 (−6.9 to −6.2) kcal/mol,–1.6 (−1.8 to −1.5) kcal/mol,> 100,> 100,–,–,–,–,–,–,–
"Cc1cc(Nc2ccc(C(F)(F)F)cc2)n2ncnc2n1 [Compound 8, (5-methyl[1,2,4]triazolo[1,5-a]pyrimidin-7-yl)(4-trifluoromethylphenyl)amine]",did not inhibit,1.5 kcal/mol,–10 (−12 to −9.8) kcal/mol,–,–,–,did not inhibit,did not inhibit,did not inhibit,–,–,–,–
"Cc1cc(Nc2cc(F)c(C(F)(F)F)c(F)c2)n2ncnc2n1 [Compound 9, N-(3,5-difluoro-4-(trifluoromethyl)phenyl)-5-methyl-[1,2,4]triazolo[1,5-a]pyrimidin-7-amine]",–,–,–,–,–,–,–,–,–,0.22,0.13,–,–
"Cc1cc(Nc2ccc(C(F)(F)F)c(F)c2)n2nc(C(C)(F)F)nc2n1 [Compound 10, 2-(1,1-difluoroethyl)-N-[3-fluoro-4-(trifluoromethyl)phenyl]-5-methyl [1,2,4]triazolo[1,5-a]pyrimidin-7-amine]",–,–2.1 kcal/mol,–9.0 (−9.3 to −8.7) kcal/mol,–,> 100,> 100,–,–,–,–,–,> 100,–
"Cc1cc(Nc2cc(F)c(C(F)(F)F)c(F)c2)n2nc(C(C)(F)F)nc2n1 [Compound 11, N-(3,5-difluoro-4-(trifluoromethyl)phenyl)-2-(1,1-difluoroethyl)-5-methyl[1,2,4]-triazolo-[1,5-a]pyrimidin-7-amine]",–,–3.3 kcal/mol,–8.1 (−8.8 to −7.5) kcal/mol,–2.1 (−2.5 to −1.9) kcal/mol,> 100,> 100,–,–,–,–,–,> 100,–8.0 kcal/mol
